Values joined by “and” are separate entries in the source; they are usually repeats but may differ in a detail not shown here. Identical values can stand only once.
Key:
Type in all cases: cell-based, human
[1] = test system: A549 cells; test: MTT cell viability assay, A549; details: for IC50: MTT, 48 h, mean ± SD, n = 3; for A549 Selectivity Index (SI): SI = IC50 (HEK 293)/IC50 (A549)
Experimental: (§1) Cell viability assay was performed on the human lung cancer (A549) (ATCC CCL-185), human breast cancer (MCF-7) (ATCC-HTB-22), cervical cancer (HeLa) (ATCC-CCL-2), and human embryonic kidney 293 (HEK293) (ATCC-CRL-1573) cell lines, which were purchased from Deutsche Sammlung von Mikroorganismen und Zellkulturen (DSMZ, Braunschweig, Germany). The cells were maintained in Dulbecco’s modified Eagle’s medium (DMEM), supplemented with 10% fetal bovine serum (FBS), 2 mM L-glutamine, 100 U/mL penicillin, and 100 mg/L streptomycin (Biochrom AG, Berlin, Germany) at 37 °C in a humidified atmosphere of 5% CO2.
(§2) The cytotoxic effect was determined by the MTT (3-(4,5-dimethyl-2-thiazolyl)-2,5-diphenyl-2H-tetrazolium bromide) cell viability assay. Cells were seeded at an initial concentration of 1 × 10^5 cells/mL in 96-well microplates. Cells were then treated with different concentrations (0.5, 5, 10, 25, 50, 100 and 200 µM) of the novel synthesized compounds for 48 h. After the incubation period, the formed formazan crystals were dissolved in dimethyl sulfoxide (DMSO), and the optical density (OD) of the compounds was measured at 570 nm using a spectrophotometer (BMG Labtech, Ortenberg, Germany). Cytotoxicity was expressed as an increase in the mean percentage of cytotoxicity relative to the unexposed control ± standard deviation (SD). […] Control values were set at 0% cytotoxicity. IC50 was calculated by fitting the data to a sigmoidal curve using a four-parameter logistic model and was presented as an average of three independent measurements. […] Doxorubicin was used as a positive control. Each sample was tested in triplicate.
(§3) To evaluate the selectivity of the tested compound(s) toward cancer cells over normal cells, the Selectivity Index (SI) was calculated using the following formula:SI = IC50 (normal cells)/IC50 (cancer cells)
(§4) An SI value greater than 2 was considered to indicate selective cytotoxicity, while values below 2 were interpreted as non-selective. Higher SI values reflect greater therapeutic potential due to reduced toxicity toward normal cells.

[2] = test system: MCF-7 cells; test: MTT cell viability assay, MCF-7; details: for IC50: MTT, 48 h, mean ± SD, n = 3; for MCF-7 Selectivity Index (SI): SI = IC50 (HEK 293)/IC50 (MCF-7)
Experimental: as §1, §2, §3, §4

[3] = test system: HeLa cells; test: MTT cell viability assay, HeLa; details: for IC50: MTT, 48 h, mean ± SD, n = 3; for HeLa Selectivity Index (SI): SI = IC50 (HEK 293)/IC50 (HeLa)
Experimental: as §1, §2, §3, §4

[4] = test system: HEK 293 cells; test: MTT cell viability assay, non-cancerous HEK 293; details: mean ± SD, n = 3
Experimental: as §1
The cytotoxic effect was determined by the MTT (3-(4,5-dimethyl-2-thiazolyl)-2,5-diphenyl-2H-tetrazolium bromide) cell viability assay. Cells were seeded at an initial concentration of 1 × 10^5 cells/mL in 96-well microplates. Cells were then treated with different concentrations (0.5, 5, 10, 25, 50, 100 and 200 µM) of the novel synthesized compounds for 48 h. After the incubation period, the formed formazan crystals were dissolved in dimethyl sulfoxide (DMSO), and the optical density (OD) of the compounds was measured at 570 nm using a spectrophotometer (BMG Labtech, Ortenberg, Germany). Cytotoxicity was expressed as an increase in the mean percentage of cytotoxicity relative to the unexposed control ± standard deviation (SD). […] Control values were set at 0% cytotoxicity. IC50 was calculated by fitting the data to a sigmoidal curve using a four-parameter logistic model and was presented as an average of three independent measurements. […] Each sample was tested in triplicate.

[5] = test system: HeLa cells; test: LDH leakage assay, HeLa; details: IC50 concentration of compound, 48 h, H2O2 positive control, mean ± SD, n = 3
Experimental: One hundred microliters of culture medium was transferred to a new 96-well plate. One hundred microliters of LDH reaction solution was added to each well, and absorbance was measured at 490 nm using an ELISA plate reader (BMG Labtech, Ortenberg, Germany) after 30 min.

[6] = test system: HeLa cells; test: Total oxidative status (TOS), HeLa; details: IC50 concentration of compound, 48 h, H2O2 250 µM positive control, mean ± SD, n = 3
Experimental: TOS were evaluated using a commercially available kit (Rel Assay Diagnostics®, Gaziantep, Turkey) according to the manufacturer’s instructions. […] The TOS assay quantifies oxidizing agents based on their ability to convert an iron (II) ion chelator complex to iron (III) ions. The results were calibrated against hydrogen peroxide (H2O2, 250 µM) as a positive control for 48 h and expressed as µmol H2O2 equivalents per liter. The analysis was performed in three independent biological replicates (n = 3).

[7] = test system: HeLa cells; test: Intracellular GSH/GSSG ratio, HeLa; details: IC50 concentration of compound, 48 h, H2O2 positive control, mean ± SD, n = 3
Experimental: Intracellular reduced (GSH) and oxidized (GSSG) glutathione levels were measured using the GSH/GSSG Ratio Detection Assay Kit (Cayman Chemical, Ann Arbor, MI, USA, Cat. No: 703002) according to the manufacturer’s protocol. […] After treatment, cells were washed with cold PBS and lysed with MES buffer provided in the kit.
To prevent oxidation of GSH to GSSG during processing, samples were deproteinized using the supplied metaphosphoric acid solution and neutralized accordingly. Total glutathione and GSSG levels were measured separately by adding the appropriate buffers and reagents to the wells of a 96-well plate, followed by the addition of DTNB recycling reagent and glutathione reductase. Absorbance was read at 405 nm using a microplate reader (BMG Labtech, Germany). The amount of GSH was calculated by subtracting 2 × GSSG from the total glutathione, and the GSH/GSSG ratio was used to assess intracellular redox status.

[8] = test system: HeLa cells; test: Cell cycle analysis (PI staining, flow cytometry), HeLa; details: IC50 concentration, 48 h, mean ± SEM, n = 3
Experimental: Cell cycle distribution was assessed by propidium iodide (PI) staining and flow cytometry. HeLa, MCF-7, and A549 cells were seeded in 6-well plates at a density of 1 × 10^5 cells per well and allowed to attach overnight. […] Following exposure, both adherent and floating cells were collected, washed twice with cold phosphate-buffered saline (PBS, pH 7.4), and fixed overnight in 70% cold ethanol at 4 °C. After fixation, the cells were centrifuged and resuspended in 500 µL of PI/RNase staining solution containing 50 µg/mL PI and 100 µg/mL RNase A (Sigma-Aldrich®, St. Louis, MO, USA), followed by incubation in the dark for 30 min at 37 °C. The stained samples were analyzed using a Muse™ Cell Analyzer (Merck, Millipore, Germany) equipped with a 488 nm excitation laser and a 617 nm emission filter. A minimum of 10,000 events per sample were acquired after exclusion of debris and doublets via FSC-A vs. FSC-H gating. The DNA content histograms were generated automatically, and cell populations were expressed as percentages of G0/G1, S, and G2/M phases using the Muse™ Cell Cycle Analysis Software 1.5.0.0. All assays were conducted in triplicate biological repeats (n = 3), and results were reported as mean ± SEM.

Compound	IC50 ([1]; Homo sapiens, A549) [µM]	A549 Selectivity Index (SI) [1]	IC50 ([2]; Homo sapiens, MCF7) [µM]	MCF-7 Selectivity Index (SI) [2]	IC50 ([3]; Homo sapiens, HeLa) [µM]	HeLa Selectivity Index (SI) [3]	IC50 ([4]; Homo sapiens, HEK293, 48 h) [µM]	IC50 [1] [µM]	IC50 [2] [µM]	IC50 [3] [µM]	IC50 ([4]; 48 h) [µM]	LDH [5]	TOS [6]	GSH/GSSG [7]	cells in G0/G1 phase [8] [%]	cells in G2/M phase [8] [%]	cells in S phase [8] [%]
CCOC(=O)Cn1c(=O)n(CC(=O)OCC)c2cc(Cl)c(Cl)cc21 [Compound 2, Diethyl 2,2′-(5,6-Dichloro-2-oxo-1H-benzimidazole-1,3(2H)-diyl)diacetate]	60.8 ± 3.51	1.17	63.2 ± 3.65	1.13	68.8 ± 3.9	1.04	71.3 ± 4.12										
O=C(Cn1c(=O)n(CC(=O)NNC(=O)c2cc3ccccc3oc2=O)c2cc(Cl)c(Cl)cc21)NNC(=O)c1cc2ccccc2oc1=O [Compound 12a, N′,N′′′ -(2,2′-(5,6-dichloro-2-oxo-1H-benzo[d]imidazole-1,3(2H)-diyl)bis(acetyl))bis(2-oxo-2H-chromene-3-carbohydrazide)]	21.7 ± 1.25	2.05	50.8 ± 2.93	0.87	48.5 ± 2.8	0.91	44.6 ± 2.57										
COc1cccc2cc(C(=O)NNC(=O)Cn3c(=O)n(CC(=O)NNC(=O)c4cc5cccc(OC)c5oc4=O)c4cc(Cl)c(Cl)cc43)c(=O)oc12 [Compound 12e, N′,N′′′ -(2,2′-(5,6-dichloro-2-oxo-1H-benzo[d]imidazole-1,3(2H)-diyl)bis(acetyl))bis(8-methoxy-2-oxo-2H-chromene-3-carbohydrazide)]	52.8 ± 3	1.14	65.1 ± 3.76	0.92	54.3 ± 3.13	1.1	60.2 ± 3.47										
2,2′-(5,6-Dichloro-2-oxo-1H-benzimidazole-1,3(2H)-diyl)bis[N′-(furan-2-ylmethylidene) acetohydrazide] [Compound 4]								48 ± 2.77	58 ± 3.35	72 ± 4.16	55 ± 3.17						
O=C(Cn1c(=O)n(CC(=O)c2ccccc2)c2cc(Cl)c(Cl)cc21)c1ccccc1 [Compound 8, 5,6-Dichloro-1,3-bis(2-oxo-2-phenylethyl)-1,3-dihydro-2H-benzimidazol-2-one]	19.1 ± 1.1	0.91	21.7 ± 1.25	0.8	23.9 ± 1.38	0.73	17.5 ± 1.01										
CCN(CC)c1ccc2cc(C(=O)NNC(=O)Cn3c(=O)n(CC(=O)NNC(=O)c4cc5ccc(N(CC)CC)cc5oc4=O)c4cc(Cl)c(Cl)cc43)c(=O)oc2c1 [Compound 12f]	23.6 ± 1.3	1.84	26.4 ± 1.52	1.64	29.1 ± 1.26	1.49	43.5 ± 2.51										
COc1cccc2c1C(=O)c1c(O)c3c(c(O)c1C2=O)C[C@@](O)(C(=O)CO)C[C@@H]3O[C@H]1C[C@H](N)[C@H](O)[C@H](C)O1 [Doxorubicin, reference compound]	4.3 ± 0.2		6.4 ± 0.37		3.4 ± 0.19												
NNC(=O)Cn1c(=O)n(CC(=O)NN)c2cc(Cl)c(Cl)cc21 [Compound 3, 2,2′-(5,6-Dichloro-2-oxo-1H-benzimidazole-1,3(2H)-diyl)diacetohydrazide]	63.5 ± 3.6	1.06	69.8 ± 4.03	0.97	75.4 ± 4.35	0.89	67.9 ± 3.9										
O=C(Cn1c(=O)n(CC(=O)NNC(=O)c2cc3cc(Cl)ccc3oc2=O)c2cc(Cl)c(Cl)cc21)NNC(=O)c1cc2cc(Cl)ccc2oc1=O [Compound 12b, N′,N′′′ -(2,2′-(5,6-dichloro-2-oxo-1H-benzo[d]imidazole-1,3(2H)-diyl)bis(acetyl))bis(6-chloro-2-oxo-2H-chromene-3-carbohydrazide)]	35.2 ± 2	1.39	25.8 ± 1.5	1.9	13.6 ± 0.78	3.61	49.1 ± 2.83					28.5 ± 2.3 µU/mL and 28.5 ± 2.3 ^a,b µU/mL	8.1 ± 0.6 µmol H2O2 eq/L and 8.1 ± 0.6 ^a,b µmol H2O2 eq/L	10.1 ± 1.1	41.0 ± 2.1	35.0 ± 1.7	24.0 ± 1.4

From article PMC12735921, “Evaluation of Antiproliferative Activity and Molecular Modeling Studies of Some Novel Benzimidazolone-Bridged Hybrid Compounds” (Pharmaceuticals, 2025)
